Test [1] deals with T1, human JAK3 (Homo sapiens, UniProt P52333).
T1 construct: The kinase domain of human JAK3 was amplified; GST (N); made in house; host or cells: Sf9 insect cells (baculovirus)
Nature of the test: Alphascreen tyrosine kinase enzyme assay, JAK3 kinase domain. The test is classed as biochemical. The following applies: read-out: JAK3 IC50_nM. A digest of the protocol:
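GST-affinity-purified human JAK3 kinase domain (baculovirus/Sf9) was pre-incubated 20 min with compound ([…]) in HEPES pH 7.5 buffer with MgCl2, vanadate and Tween 20. Biotinylated peptide substrate ([…]) and ATP were then added; phosphotyrosine was detected by AlphaScreen PY100 acceptor and streptavidin donor beads after 2–3 h.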
For orientation: Bead proximity is the source of the signal in Alpha formats.

In test [2] the test system is CTLL2. Nature of the test: Cellular screening, CTLL2 cells, Alamar Blue. In kind it is cell-based. The following applies: Mus musculus, CTLL-2, read-out: CTLL2 IC50_nM. The essentials:
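Viability is read with Alamar Blue at 544 nm, the dye added for the final 4-6 hours. Compounds were incubated for 40 hr with CTLL2 cells taken from late-log-phase culture, at 37° C in 5% CO2.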
(Alamar Blue is a resazurin reagent that responds to reducing activity.)

Test [3] deals with BaF3 wild-type cells. The test can be described thus: Cellular screening, BaF3 wild-type cells, Alamar Blue. In kind it is cell-based. The following applies: Mus musculus, 40 hr, read-out: BAF3wt IC50_nM. The essentials:
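Compounds, screened from dilution plates at 20 μM, were added as 10× final stocks to cells grown in DMEM/10% FCS/10% WEHI 3B conditioned medium. Cells were seeded at 1.1× final (50,000–200,000 cells/mL) and incubated 40 hr at 37° C, 5% CO2. Viability was read at 544 nm after a further 4–6 hours with Alamar Blue.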

The record followed here is US8846704B2, “Thiopyrimidine-based compounds and uses thereof” (YM Biosciences Austraila Pty Ltd, priority 2007, dated 2014).

Structures are written as SMILES.

T1 sequence (P52333 822-1111 limits assumed): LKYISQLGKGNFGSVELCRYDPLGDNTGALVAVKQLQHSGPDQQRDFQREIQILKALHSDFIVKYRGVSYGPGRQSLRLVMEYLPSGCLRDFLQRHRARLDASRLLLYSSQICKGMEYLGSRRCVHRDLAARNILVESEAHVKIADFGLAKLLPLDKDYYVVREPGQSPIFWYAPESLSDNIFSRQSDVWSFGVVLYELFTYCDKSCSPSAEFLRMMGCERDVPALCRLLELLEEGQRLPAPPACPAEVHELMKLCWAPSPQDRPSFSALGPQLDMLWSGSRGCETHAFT

`Cc1cnc(Nc2ccc(N3CCOCC3)cc2)nc1Sc1ccc(N2C(=O)COCC2=O)cc1` [Compound 190, 4-(4-(5-methyl-2-(4-morpholinophenylao)pyrimidin-4-ylthio)phenyl)morpholine-3,5-dione]: the IC50 in test [1] is less than 0.1 µM; in test [2], more than 20 µM; in test [3] it was more than 20 µM.

Turning to `Cc1cnc(Nc2ccc(N3CCOCC3)cc2)nc1Sc1ccc(C(C#N)N2CCN(C)CC2)cc1` (centres unmarked) [Compound 225, 2-(4-(5-methyl-2-(4-morpholinophenylao)pyrimidin-4-ylthio)phenyl)-2-(4-methylpiperazin-1-yl)acetonitrile], the values for the IC50 in test [1], in test [2] and in test [3] were less than 0.5 µM, less than 5 µM and less than 5 µM, respectively.

For the compound `NC(=O)c1ccc(Sc2ccnc(Nc3ccc(N4CCOCC4)cc3)n2)cc1` [Compound 207, 4-(2-(4-morpholinophenylao)pyrimidin-4-ylthio)benzamide], the IC50 in test [1] is less than 0.5 µM.

For the compound `Cc1cnc(Nc2ccc(N3CCOCC3)cc2)nc1Sc1ccc(CC#N)cc1` [Compound 222, 2-(4-(5-methyl-2-(4-morpholinophenylao)pyrimidin-4-ylthio)phenyl)acetonitrile], the IC50 is less than 0.5 µM in test [1], more than 20 µM in test [2] and more than 20 µM in test [3].

As for `Cc1cnc(Nc2ccc(N3CCOCC3)cc2)nc1Sc1ccc(C=O)cc1` [Compound 219, 4-(5-methyl-2-(4-morpholinophenylao)pyrimidin-4-ylthio)benzaldehyde], the IC50 in test [1] was less than 0.5 µM; in test [2], more than 20 µM; in test [3], less than 5 µM.

As to `Cc1cnc(Nc2ccc(N3CCOCC3)cc2)nc1Sc1ccc(CO)cc1` [Compound 220, (4-(5-methyl-2-(4-morpholinophenylao)pyrimidin-4-ylthio)phenyl)methanol], the IC50 in test [1] is less than 0.1 µM; in test [2] it was less than 1 µM; in test [3] it was less than 5 µM.

Regarding `Cc1cnc(Nc2ccc(N3CCOCC3)cc2)nc1Sc1ccc(NC2CCOC2=O)cc1` (centres unmarked) [Compound 228, 3-(4-(5-methyl-2-(4-morpholinophenylao)pyrimidin-4-ylthio)phenylao)dihydrofuran-2(3H)-one], the IC50 is less than 0.1 µM in test [1], more than 20 µM in test [2] and more than 20 µM in test [3].

As to `Cc1cnc(Nc2ccc(N3CCOCC3)cc2)nc1Sc1cccc(CO)c1` [Compound 212, (3-(5-methyl-2-(4-morpholinophenylao)pyrimidin-4-ylthio)phenyl)methanol], the IC50 in test [1] was less than 0.5 µM; in test [2], more than 20 µM; in test [3] it was more than 20 µM.

Regarding `Cc1cnc(Nc2cccc(S)c2)nc1Sc1ccc(NC(=O)CCl)cc1` [Compound 195, 2-chloro-N-(4-(2-(3-mercaptophenylao)-5-methylpyrimidin-4-ylthio)phenyl)acetamide], the IC50 is less than 0.1 µM in test [1], more than 20 µM in test [2] and more than 20 µM in test [3].

Consider `Cc1cnc(Nc2cccc(NS(C)(=O)=O)c2)nc1Sc1ccc(CO)cc1` [Compound 226, N-(3-(4-(4-(hydroxymethyl)phenylthio)-5-methylpyrimidin-2-ylao)phenyl)methanesulfonamide], for which the IC50 in test [1] was less than 0.5 µM.

On to `N#CCc1ccc(Sc2ccnc(Nc3ccc(N4CCOCC4)cc3)n2)cc1` [Compound 210, 2-(4-(2-(4-morpholinophenylao)pyrimidin-4-ylthio)phenyl)acetonitrile], for which the IC50 in test [1] was less than 0.5 µM; in test [2], more than 20 µM; in test [3], more than 20 µM.

On to `Cc1cnc(Nc2ccc(O)cc2)nc1Sc1ccc(N)cc1` [Compound 191, 4-(4-(4-aophenylthio)-5-methylpyrimidin-2-ylao)phenol], for which the IC50 in test [1] is less than 0.5 µM; in test [2], less than 5 µM; in test [3], less than 5 µM.

As for `Cc1cnc(Nc2ccc(N3CCOCC3)cc2)nc1Sc1ccc(C(=O)N2CCCC2)cc1` [Compound 224, (4-(5-methyl-2-(4-morpholinophenylao)pyrimidin-4-ylthio)phenyl)(pyrrolidin-1-yl)methanone], the IC50 was less than 0.5 µM in test [1], more than 20 µM in test [2] and less than 20 µM in test [3].

On to `C=CC(=O)Nc1cccc(Nc2nccc(SC)n2)c1` [Compound 7, N-(3-(4-(methylthio)pyrimidin-2-ylao)phenyl)acrylamide], for which the IC50 was less than 0.1 µM in test [1], less than 5 µM in test [2] and less than 20 µM in test [3].

With `Cc1cnc(Nc2ccc(N3CCOCC3)cc2)nc1Sc1ccc(N2CCSCC2=O)cc1` [Compound 197, 4-(4-(5-methyl-2-(4-morpholinophenylao)pyrimidin-4-ylthio)phenyl)thiomorpholin-3-one], the IC50 is less than 0.1 µM in test [1], more than 20 µM in test [2] and more than 20 µM in test [3].

Regarding `CON(C)C(=O)c1ccc(Sc2nc(Nc3ccc(N4CCOCC4)cc3)ncc2C)cc1` [Compound 218, N-methoxy-N-methyl-4-(5-methyl-2-(4-morpholinophenylao)pyrimidin-4-ylthio)benzamide], the IC50 in test [1] was less than 0.5 µM; in test [2] it was more than 20 µM; in test [3], more than 20 µM.

Turning to `c1cc(Sc2ccc(Cn3cncn3)cc2)nc(Nc2ccc(N3CCOCC3)cc2)n1` [Compound 204, 4-(4-((1H-1,2,4-triazol-1-yl)methyl)phenylthio)-N-(4-morpholinophenyl)pyrimidin-2-ae], the IC50 is less than 0.5 µM in test [1], less than 20 µM in test [2] and less than 20 µM in test [3].

In the case of `N#Cc1c(N)ncn1Cc1cccc(Sc2ccnc(Nc3ccc(N4CCOCC4)cc3)n2)c1` [Compound 199, 4-ao-1-(3-(2-(4-morpholinophenylao)pyrimidin-4-ylthio)benzyl)-1H-imiazole-5-carbonitrile], the IC50 in test [1] is less than 0.5 µM; in test [2] it was less than 20 µM; in test [3], less than 20 µM.

With `Cc1cnc(Nc2ccc(N3CCOCC3)cc2)nc1Sc1ccc(NC(=O)CO)cc1` [Compound 229, 2-hydroxy-N-(4-(5-methyl-2-(4-morpholinophenylao)pyrimidin-4-ylthio)phenyl)acetamide], the results for the IC50 in test [1], in test [2] and in test [3] were less than 0.5 µM, less than 20 µM and less than 20 µM, respectively.

On to `N#Cc1ncn(Cc2ccc(Sc3ccnc(Nc4ccc(N5CCOCC5)cc4)n3)cc2)c1N` [Compound 202, 5-ao-1-(4-(2-(4-morpholinophenylao)pyrimidin-4-ylthio)benzyl)-1H-imidazole-4-carbonitrile], for which the IC50 in test [1] was less than 0.5 µM; in test [2], less than 5 µM; in test [3] it was less than 20 µM.

`N#Cc1c(N)ncn1Cc1ccc(Sc2ccnc(Nc3ccc(N4CCOCC4)cc3)n2)cc1` [Compound 203, 4-ao-1-(4-(2-(4-morpholinophenylao)pyrimidin-4-ylthio)benzyl)-1H-imidazole-5-carbonitrile]: the results for the IC50 in test [1], in test [2] and in test [3] were less than 0.5 µM, less than 1 µM and less than 1 µM, respectively.

Turning to `Cc1cnc(Nc2ccc(N3CCOCC3)cc2)nc1Sc1ccc(C(C#N)N2CCOCC2)cc1` (centres unmarked) [Compound 223, 2-(4-(5-methyl-2-(4-morpholinophenylao)pyrimidin-4-ylthio)phenyl)-2-morpholinoacetonitrile], the IC50 in test [1] is less than 0.5 µM; in test [2] it was less than 5 µM; in test [3] it was less than 5 µM.
